Patent US20230321278A1, “AAV VECTOR DELIVERY SYSTEMS” (President and Fellows of Harvard College, priority 2020, published 2023)
“Also recorded” adds a separate entry of the source.

Assays:
HFSCs = test: Adrenergic agonist topical application, anagen entry; type: in vivo, mice; details: 10 mg/kg body weight once a day for 10 days, extended 2nd telogen
From the text: Next, the impact of elevated sympathetic tone on HFSC activation was explored. Sympathetic nerve terminals secrete the neurotransmitter norepinephrine, which binds to adrenergic receptors on target cells. To elevate the sympathetic tone, isoproterenol, a pan-adrenergic receptor agonist, was topically applied at the extended 2nd telogen. […] Loss of sympathetic nerve innervations makes HFSCs more dormant, whereas elevated sympathetic tone promotes HFSC activation.
(§1) H&E stained sections were used for analysis. For quantification, anagen II and anagen III were considered as early anagen, anagen IV was mid anagen, and anagen V and anagen VI were full anagen. Hair cycle stages were determined using previously described criteria (Muller-Rover et al., 2001). Ten to twenty hair follicles were individually assessed and staged in each animal, and at least 4 different animals were used per condition. […] The effects of cold exposure and adrenergic agonist treatment (isoproterenol and procaterol) on anagen entry were quantified by monitoring the change of hair regrowth as previously described (Fan et al., 2018; Sheen et al., 2015). The percent of dorsal skin in anagen was quantified using Fiji. […]

human HFSCs = test: Colony formation assay (CFA); type: cell-based; details: 0.1 μM procaterol
Procedure: Human hair follicles were isolated from normal scalp tissues. To isolate hair follicle stem cells (HFSCs), hair follicles were dissected, and subcutaneous fat and connective tissues were carefully removed with a scalpel. The lower hair bulb and upper epithelial layer were removed as previously described (Oshima et al., 2001; Rochat et al., 1994). For HFSC isolation, hair follicles were incubated in 1.25 U/mL dispase (Gibco) and 0.5 mg/mL collagenase I (Sigma-Aldrich) solution at 37° C. for 30 minutes, following which the mesenchymal sheath was carefully removed with forceps. To obtain a single cell HFSC suspension, tissue was digested with 0.05% trypsin/EDTA solution (Gibco) for 1 h at 37° C., and cells were filtered through a sterile 40[…] cell strainer (BD Biosciences). Single cell suspensions were then centrifuged at 1300 rpm for 10 minutes and plated on mitomycin C (Cayman) treated J2 feeders at a cell density of 5000 cells/well in a 12-well culture plate (Falcon) in E media supplemented with EGF and additives as described in (Mou et al., 2016; Nowak and Fuchs, 2009). After 48 hours, 0.1 μM procaterol (Sigma) was added (freshly prepared). Medium was changed every 2 days. On day 10, plates were fixed with 4% PFA and stained with Rhodamine B (Sigma). […] CFA quantification was done using Fiji.

sympathetic nerve = test: Sympathetic nerve ablation by intradermal injection of 6-OHDA; type: in vivo, mice
From the text: The sympathetic nervous system is constantly active at a basal level to maintain body physiology. To explore if basal sympathetic nerve activity affects the other two cell types in this nerve-APM-HFSC tri-lineage unit, the sympathetic nerve in telogen skin was ablated through intradermal injection of 6-hydroxydopamine (6-OHDA, a selective neurotoxin for sympathetic nerves) (Kostrzewa and Jacobowitz, 1974), when HFSCs are quiescent. […] By P30, hair follicles reached full anagen throughout the control back skin, whereas hair follicles in the sympathectomized skin remained mostly in telogen (FIG. 1C). […]
Chemical ablation: 6-Hydroxydopamine hydrobromide (6-OHDA, Sigma 162957) solution was prepared freshly by dissolving 6-OHDA in 0.1% ascorbic acid (in 0.9% sterile NaCl) for intradermal injection. […] Skin was analyzed one week after ablation.
as §1, with “The” for “The effects of cold exposure and adrenergic agonist treatment (isoproterenol and procaterol) on anagen entry were quantified by monitoring the change of hair regrowth as previously described (Fan et al., 2018; Sheen et al., 2015). The”

Structure (SMILES) | anagen entry (back skin hair regrowth) (HFSCs) | growth of cultured human HFSCs (area covered by colonies) (human HFSCs) | ablation of the sympathetic nerve in skin (sympathetic nerve; intradermal injection, telogen skin) | HFSC activation and anagen entry (sympathetic nerve; sympathectomy by intradermal 6-OHDA)
CC(C)NCC(O)c1ccc(O)c(O)c1 (centres unmarked) [isoproterenol] | entered anagen earlier; also recorded: precocious anagen entry | – | – | –
CCC(NC(C)C)C(O)c1ccc(O)c2[nH]c(=O)ccc12 (centres unmarked) [procaterol] | accelerated anagen entry; also recorded: premature anagen entry | promoted their growth | – | –
NCCc1cc(O)c(O)cc1O [6-OHDA, 6-hydroxydopamine] | – | – | ablated the sympathetic nerve efficiently | substantial delay in HFSC activation and anagen entry
